# Measurements reported in PMC5767129 (European journal of pharmacology, 2017).
# Tests used:
# [1] = target: T1, human P2X7 receptor (Homo sapiens, UniProt Q99572); test: Radioligand saturation binding assay with [^123I]TZ6019
# T1 sequence (Q99572 1-595): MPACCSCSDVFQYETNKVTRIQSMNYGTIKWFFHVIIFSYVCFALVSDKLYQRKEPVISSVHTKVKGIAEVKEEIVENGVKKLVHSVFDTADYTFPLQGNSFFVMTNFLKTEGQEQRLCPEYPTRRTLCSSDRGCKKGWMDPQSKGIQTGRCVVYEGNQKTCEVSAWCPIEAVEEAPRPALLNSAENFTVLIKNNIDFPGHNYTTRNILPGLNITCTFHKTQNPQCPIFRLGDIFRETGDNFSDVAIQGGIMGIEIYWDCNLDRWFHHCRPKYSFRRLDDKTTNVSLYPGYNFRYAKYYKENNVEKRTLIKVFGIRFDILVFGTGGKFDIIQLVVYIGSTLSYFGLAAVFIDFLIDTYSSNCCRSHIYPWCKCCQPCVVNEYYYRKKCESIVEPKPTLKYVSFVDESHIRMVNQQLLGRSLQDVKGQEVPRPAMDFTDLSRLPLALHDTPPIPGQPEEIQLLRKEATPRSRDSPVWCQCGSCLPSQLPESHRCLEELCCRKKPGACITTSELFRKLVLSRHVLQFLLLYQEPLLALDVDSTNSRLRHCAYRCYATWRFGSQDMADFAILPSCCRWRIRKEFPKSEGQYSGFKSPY
# [2] = target: T1, human P2X7 receptor; test: Ethidium bromide uptake fluorescence assay; format: cell-based
# [3] = target: T1, human P2X7 receptor; test: Radioligand competition binding assay using [^3H]A804598
# [4] = target: T1, human P2X7 receptor; conditions: carbon-11 labeled radioligand; ref Gao et al., 2015; Ory et al., 2016; cited from earlier work
# [5] = system: rodents P2X7 receptor; conditions: carbon-11 labeled radioligand; ref Gao et al., 2015; Ory et al., 2016; cited from earlier work
# [6] = target: T1, human P2X7 receptor; test: Radioligand competition binding assay using [^123I]TZ6019
# [7] = target: T2, P2X7 receptor (Mus musculus, UniProt Q9Z1M0); test: In vitro autoradiography of P301S and wild type mouse brain slices; format: binding; conditions: for P2X7 receptor expression quantified by autoradiography: mean ± S.D., n = 3
# T2 sequence (Q9Z1M0 1-595): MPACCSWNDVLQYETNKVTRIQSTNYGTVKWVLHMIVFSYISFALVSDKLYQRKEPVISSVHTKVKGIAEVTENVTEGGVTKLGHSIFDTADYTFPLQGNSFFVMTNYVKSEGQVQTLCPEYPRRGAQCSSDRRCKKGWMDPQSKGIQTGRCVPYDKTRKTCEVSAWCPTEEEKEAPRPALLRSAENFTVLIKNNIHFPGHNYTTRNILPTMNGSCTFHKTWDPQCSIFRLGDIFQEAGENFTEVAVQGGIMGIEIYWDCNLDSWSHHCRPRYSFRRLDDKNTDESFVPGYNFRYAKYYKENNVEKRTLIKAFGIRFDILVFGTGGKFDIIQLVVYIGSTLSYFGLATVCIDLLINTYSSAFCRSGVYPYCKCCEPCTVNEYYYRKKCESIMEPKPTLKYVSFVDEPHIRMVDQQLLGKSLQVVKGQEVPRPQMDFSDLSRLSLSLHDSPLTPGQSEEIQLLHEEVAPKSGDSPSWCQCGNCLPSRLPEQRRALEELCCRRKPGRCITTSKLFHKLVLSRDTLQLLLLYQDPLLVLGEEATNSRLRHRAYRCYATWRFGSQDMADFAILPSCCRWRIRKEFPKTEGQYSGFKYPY
structure (smiles),measurement,setting,value
O=C(NCc1cccc(C(F)(F)F)c1Cl)[C@@H]1CCC(=O)N1C/C=C/I [[^123I]TZ6019],Kd,"[1]; read-out: Kd (saturation binding), HEK-293-hP2X7R cells, one-site fit, n = 3",19.3 ± 2.8 nM
"CN1C(=O)CC[C@H]1C(=O)NCc1cccc(C(F)(F)F)c1Cl [GSK1482160, reference compound]",IC50,[2],2.1 ± 0.3 nM
same,IC50,[3],8.65 ± 1 nM
same,binding to human P2X7 receptor,[4],tight binding
same,binding to rodents P2X7 receptor,[5],weak binding
same,IC50,[6],4.3 ± 0.9 nM
O=C(NCc1cccc(C(F)(F)F)c1Cl)[C@@H]1CCC(=O)N1C/C=C/[123I] [[^123I]TZ6019],specific binding as fraction of total binding,"[1]; saturation binding, nonspecific defined with 100 µM GSK1482160",approximately 40%
same,fold higher autoradiography binding in P301S than wild type mice,[7]; Cortex,2.4 fold
same,P2X7 receptor expression quantified by autoradiography,"[7]; Cortex, P301S mice",330.53 ± 91.08 PSL/mm^2
same,P2X7 receptor expression quantified by autoradiography,"[7]; Cortex, Wild type mice",135.23 ± 32.55 PSL/mm^2
same,P2X7 receptor expression quantified by autoradiography,"[7]; Hippocampus, P301S mice, 9-month-old",255.05 ± 10.90 PSL/mm^2
same,P2X7 receptor expression quantified by autoradiography,"[7]; Hippocampus, Wild type mice, 9-month-old",154.18 ± 16.14 PSL/mm^2
same,P2X7 receptor expression quantified by autoradiography,"[7]; Thalamus, P301S mice",337.98 ± 93.45 PSL/mm^2
same,P2X7 receptor expression quantified by autoradiography,"[7]; Thalamus, Wild type mice",187.41 ± 61.02 PSL/mm^2
same,P2X7 receptor expression quantified by autoradiography,"[7]; Total brain, P301S mice",260.86 ± 48.93 PSL/mm^2
same,P2X7 receptor expression quantified by autoradiography,"[7]; Total brain, Wild type mice",193.05 ± 39.92 PSL/mm^2
same,increase of binding in brain of P301S mice compared to wild type controls,"[7]; brain, n = 3, p = 0.04",35%
"O=C(NCc1cccc(C(F)(F)F)c1Cl)[C@@H]1CCC(=O)N1C/C=C/I [TZ6019, (S,E)-N-(2-chloro-3-(trifluoromethyl)benzyl)-1-(3-iodoallyl)-5-oxopyrrolidine-2-carboxamide]",fold lower binding potency than GSK1482160,[2]; ratio of ethidium bromide assay IC50 values,5 fold
same,IC50,[3],12.9 ± 2 nM
same,IC50,[6],9.49 ± 1.4 nM
